Patent US10435396B2, “2-substituted indazoles, methods for producing same, pharmaceutical preparations that contain same, and use of same to produce drugs” (Bayer Pharma Aktiengesellschaft, priority 2016, dated 2019)
Values belong to the molecule of their own block, whether it stands above or below them.

Experiments:
[1] = molecular target: human IRAK4 (Homo sapiens (Human), UniProt Q9NWZ3); assay: IRAK4 kinase assay (IRAK4 TR-FRET assay); format: biochemical; settings: 1 mM ATP
Method: The IRAK4-inhibitory activity of the substances according to the invention was measured in the IRAK4 TR-FRET assay (TR-FRET=Time Resolved Fluorescence Resonance Energy Transfer) described hereinafter.
Recombinant fusion protein from N-terminal GST (glutathione S-transferase) and human IRAK4, expressed in baculovirus-infected insect cells (Hi5, BTI-TN-5B1-4, cell line purchased from Invitrogen, catalogue No. B855-02) and purified via affinity chromatography, was used as enzyme. The substrate used for the kinase reaction was the biotinylated peptide biotin-Ahx-[…] (C-terminus in amide form) which can be purchased, for example, from Biosyntan GmbH (Berlin-Buch).
For the assay, 11 different concentrations in the range from 20 μM to 0.073 nM were prepared from a 2 mM solution of the test substance in DMSO. 50 nl of the respective solution were pipetted into a black low-volume 384-well microtitre plate (Greiner Bio-One, Frickenhausen, Germany), 2 μl of a solution of IRAK4 in assay buffer [50 mM HEPES pH 7.5, 5 mM MgCl2, 1.0 mM dithiothreitol, 30 μM activated sodium orthovanadate, 0.1% (w/v) of bovine gamma-globulin (BGG) 0.04% (v/v) nonidet-P40 (Sigma)] were added and the mixture was incubated for 15 min to allow prebinding of the substances to the enzyme prior to the kinase reaction. The kinase reaction was then started by addition of 3 μl of a solution of adenosine triphosphate (ATP, 1.67 mM=final concentration in 5 μl of assay volume: 1 mM) and peptide substrate (0.83 μM=final concentration in 5 μl assay volume: 0.5 μM) in assay buffer, and the resulting mixture was incubated at 22° C. for the reaction time of 45 min. The concentration of the IRAK4 was adjusted to the respective activity of the enzyme and set such that the assay was carried out in the linear range. Typical concentrations were in the order of about 0.2 nM. The reaction was stopped by addition of 5 μl of a solution of TR-FRET detection reagents [0.1 μM streptavidin-XL665 (Cisbio Bioassays; France, catalogue No. 610SAXLG)] and 1.5 nM anti-phosphoserine antibody [Merck Millipore, “STK Antibody”, catalogue No. 35-002] and 0.6 nM LANCE EU-W1024-labelled anti-mouse-IgG antibody (Perkin-Elmer, product No. AD0077; alternatively, it is possible to use a terbium cryptate-labelled anti-mouse-IgG antibody from Cisbio Bioassays) in aqueous EDTA solution (100 mM EDTA, 0.4% [w/v] bovine serum albumin [BSA] in 25 mM HEPES pH 7.5).
The resulting mixture was incubated at 22° C. for 1 h to allow formation of a complex of the biotinylated phosphorylated substrate and the detection reagents. The amount of the phosphorylated substrate was then evaluated by measuring the resonance energy transfer from europium chelate-labelled anti-mouse-IgG antibody to streptavidin-XL665. To this end, the fluorescence emissions at 620 nm and 665 nm were measured after excitation at 350 nm in a TR-FRET measuring instrument, for example a Rubystar (BMG Labtechnologies, Offenburg, Germany) or a Viewlux (Perkin-Elmer). The ratio of the emissions at 665 nm and 622 nm was taken as a measure of the amount of phosphorylated substrate. The data were normalized (enzyme reaction without test substance=0% inhibition; all other assay components but no enzyme=100% inhibition). Typically, the test substances were tested on the same microtitre plates at 11 different concentrations in the range from 20 μM to 0.073 nM (20 μM, 5.7 μM, 1.6 μM, 0.47 μM, 0.13 μM, 38 nM, 11 nM, 3.1 nM, 0.89 nM, 0.25 nM and 0.073 nM). The dilution series were prepared prior to the assay (2 mM to 7.3 nM in 100% DMSO) by serial dilutions. The IC50 values were calculated using a 4-parameter fit.

[2] = tested on: secretion of TNF-α in THP-1 cells; assay: TNF-α secretion in THP-1 cells (LPS-triggered); format: cell-based, human; settings: Homo sapiens, THP-1, 17 h, LPS 0.05 μg/ml, read-out: IC50 with respect to the secretion of TNF-α in THP-1 cells
Method: TNF-α Secretion in THP-1 Cells
With the aid of this test, it is possible to test substances for their ability to inhibit secretion of TNF-α (tumour necrosis factor alpha) in THP-1 cells (human monocytic acute leukaemia cell line). TNF-α is a cytokine involved in inflammatory processes. In this test, TNF-α secretion is triggered by incubation with bacterial lipopolysaccharide (LPS).
THP-1 cells are kept in continuous suspension cell culture [RPMI 1460 medium with L-Glutamax (Gibco, Cat No. 61870-044) supplemented with foetal calf serum (FCS) 10% (Invitrogen, Cat No. 10082-147), 1% penicillin/streptomycin (Gibco BRL, Cat No. 15140-114)] and should not exceed a cell concentration of 1×10^6 cells/ml. The assay is carried out in cell culture medium (RPMI 1460 medium with L-Glutamax supplemented with FCS 10%).
In each case 2-2.5 μl of the cell suspension (corresponds to 4000 cells) per well were dispensed into a 384-well test plate (Greiner, Cat No. 784076), in each of which 40-50 nl substance had been dissolved in 100% DMSO. This was done using […] in the range from 20 μM to 0.073 nM for each substance. The cells were incubated at room temperature for 15 min. 2-2.5 μl of 0.1 μg/ml LPS (Sigma, Escherichia coli 055:B5, Cat. No. L5418) dissolved in cell culture medium (final concentration 0.05 μg/ml) were then dispensed into each well. As neutral control, cells were treated with 0.05 μg/ml LPS and 1% DMSO and, as inhibitor control, with 1% DMSO only.
The plates were centrifuged at 80 g for 30 s and incubated at 37° C., 5% CO2 and 95% atmospheric humidity for 17 h. The amount of TNF-α was determined using the TNF-alpha HTRF Detection Kit (Cisbio, Cat No. 62TNFPEB/C). To this end, 2 μl of the detection solution in each case, consisting of anti-TNF-α-XL665 conjugate and anti-TNF-α-cryptate conjugate dissolved in the reconstitution buffer in accordance with the manufacturer's instructions, were added for the HTRF (Homogeneous Time-Resolved Fluorescence) test. After the addition, the mixture was incubated either at room temperature for 3 h or at 4° C. overnight. The signals were then read at 620/665 nm using an HTRF-enabled measuring instrument such as the BMG PheraStar.
The activity of the substances is expressed as the ratio between neutral and inhibitor control in percent. The IC50 values were calculated using a 4-parameter fit.

human IRAK4, sequence (Q9NWZ3 whole entry): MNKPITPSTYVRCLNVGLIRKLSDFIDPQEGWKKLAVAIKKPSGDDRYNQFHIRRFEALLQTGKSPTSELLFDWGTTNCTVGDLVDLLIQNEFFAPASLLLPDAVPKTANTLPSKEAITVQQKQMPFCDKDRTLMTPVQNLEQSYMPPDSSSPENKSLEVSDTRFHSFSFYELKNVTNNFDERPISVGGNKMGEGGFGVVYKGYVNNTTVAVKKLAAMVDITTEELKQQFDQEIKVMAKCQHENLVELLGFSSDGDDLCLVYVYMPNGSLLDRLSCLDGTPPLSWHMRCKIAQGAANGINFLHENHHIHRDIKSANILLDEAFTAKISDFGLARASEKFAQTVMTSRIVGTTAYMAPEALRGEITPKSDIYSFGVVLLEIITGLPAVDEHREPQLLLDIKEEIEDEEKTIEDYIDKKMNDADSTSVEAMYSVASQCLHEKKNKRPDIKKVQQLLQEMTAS

Compound: COC(=O)c1cc2nn(C3CCOCC3)cc2cc1NC(=O)c1cccc(C(F)(F)F)n1 [Example 33, Methyl 2-(tetrahydro-2H-pyran-4-yl)-5-({[6-(trifluoromethyl)pyridin-2-yl]carbonyl}amino)-2H-indazole-6-carboxylate]
IC50 [1]: 11 nM
IC50 [2]: 1800 nM

Compound: CC(C)(O)c1cc2nn([C@H]3CCOC3)cc2cc1NC(=O)c1cccc(C(F)(F)F)n1 [Example 36, N-{6-(2-Hydroxypropan-2-yl)-2-[(3S)-tetrahydrofuran-3-yl]-2H-indazol-5-yl}-6-(trifluoromethyl)pyridine-2-carboxamide]
IC50 [1]: 28 nM
IC50 [2]: 540 nM

Compound: O=C(Nc1cc2cn(C3CCOCC3)nc2cc1Cl)c1cccc(C(F)F)n1 [Example 31, N-[6-Chloro-2-(tetrahydro-2H-pyran-4-yl)-2H-indazol-5-yl]-6-(difluoromethyl)pyridine-2-carboxamide]
IC50 [1]: 22 nM
IC50 [2]: 90 nM

Compound: COc1cc2nn(C3CCOCC3)cc2cc1NC(=O)c1cccc(N)n1 [Example 26, 6-Amino-N-[6-methoxy-2-(tetrahydro-2H-pyran-4-yl)-2H-indazol-5-yl]pyridine-2-carboxamide]
IC50 [1]: 6 nM
IC50 [2]: 220 nM

Compound: COc1cc2nn(C3CCOC3)cc2cc1NC(=O)c1cccc(C(F)(F)F)n1 (centres unmarked) [Example 29, N-[6-Methoxy-2-(tetrahydrofuran-3-yl)-2H-indazol-5-yl]-6-(trifluoromethyl)pyridine-2-carboxamide]
IC50 [1]: 10 nM
IC50 [2]: 630 nM

Compound: COc1cc2nn(C3CCOCC3)cc2cc1NC(=O)c1ccnc(C(C)C)n1 [Example 27, 2-Isopropyl-N-[6-methoxy-2-(tetrahydro-2H-pyran-4-yl)-2H-indazol-5-yl]pyrimidine-4-carboxamide]
IC50 [1]: 111 nM
IC50 [2]: 1790 nM

Compound: COc1cc2nn(C3CNC(=O)C3)cc2cc1NC(=O)c1cccc(C(F)(F)F)n1 (centres unmarked) [Example 22, N-[6-Methoxy-2-(5-oxopyrrolidin-3-yl)-2H-indazol-5-yl]-6-(trifluoromethyl)pyridine-2-carboxamide]
IC50 [1]: 13 nM
IC50 [2]: 150 nM

Continued by falling IC50 [1], values first:

IC50 [1]: 47 nM
IC50 [2]: 280 nM
Compound: O=C(Nc1cc2cn(C3CCOCC3)nc2cc1Cl)c1cccc(C(F)(F)F)n1 [Example 30, N-[6-Chloro-2-(tetrahydro-2H-pyran-4-yl)-2H-indazol-5-yl]-6-(trifluoromethyl)pyridine-2-carboxamide]

IC50 [1]: 31 nM
IC50 [2]: 630 nM
Compound: CC(C)(O)c1cc2nn([C@@H]3CCOC3)cc2cc1NC(=O)c1cccc(C(F)(F)F)n1 [Example 38, N-{6-(2-Hydroxypropan-2-yl)-2-[(3R)-tetrahydrofuran-3-yl]-2H-indazol-5-yl}-6-(trifluoromethyl)pyridine-2-carboxamide]

IC50 [1]: 10 nM
IC50 [2]: 840 nM
Compound: COc1cc2nn(C3CCOCC3)cc2cc1NC(=O)c1csc(C)n1 [Example 25, N-[6-Methoxy-2-(tetrahydro-2H-pyran-4-yl)-2H-indazol-5-yl]-2-methyl-1,3-thiazole-4-carboxamide]

IC50 [1]: 9 nM
IC50 [2]: 190 nM
Compound: COc1cc2nn([C@H]3C[C@@H]4C[C@H]3CN4C)cc2cc1NC(=O)c1cccc(C(F)(F)F)n1 (relative stereo) [Example 19, rel-N-{6-Methoxy-2-[(1S,4S,5S)-2-methyl-2-azabicyclo[2.2.1]hept-5-yl]-2H-indazol-5-yl}-6-(trifluoromethyl)pyridine-2-carboxamide]

IC50 [1]: 8 nM
IC50 [2]: 520 nM
Compound: COc1cc2nn(C3CCN(S(=O)(=O)NC(C)=O)CC3)cc2cc1NC(=O)c1cccc(C(F)(F)F)n1 [Example 8, N-{2-[1-(Acetylsulphamoyl)piperidin-4-yl]-6-methoxy-2H-indazol-5-yl}-6-(trifluoromethyl)pyridine-2-carboxamide]

IC50 [1]: 7 nM
IC50 [2]: 750 nM
Compound: COc1cc2nn(C3CCN(CC(F)(F)F)CC3)cc2cc1NC(=O)c1cccc(C(F)(F)F)n1 [Example 3, N-{6-Methoxy-2-[1-(2,2,2-trifluoroethyl)piperidin-4-yl]-2H-indazol-5-yl}-6-(trifluoromethyl)pyridine-2-carboxamide]
